PMC7691349, “Roles of two glutathione S-transferases in the final step of the β-aryl ether cleavage pathway in Sphingobium sp. strain SYK-6” (Scientific Reports, 2020)

Legend:
LigF = target: T1, LigF (Sphingobium sp. SYK-6, UniProt P30347); assay: chiral HPLC of MPHPV conversion; assay type: biochemical; conditions: 400 µM racemic MPHPV; 5 mM GSH; 50 mM Tris-HCl pH 7.5; 30 °C; 60 min
T1 construct: full length in pET-16b (pET08650), His-tagged, E. coli BL21(DE3), His SpinTrap purified
T1 sequence (P30347 1-257): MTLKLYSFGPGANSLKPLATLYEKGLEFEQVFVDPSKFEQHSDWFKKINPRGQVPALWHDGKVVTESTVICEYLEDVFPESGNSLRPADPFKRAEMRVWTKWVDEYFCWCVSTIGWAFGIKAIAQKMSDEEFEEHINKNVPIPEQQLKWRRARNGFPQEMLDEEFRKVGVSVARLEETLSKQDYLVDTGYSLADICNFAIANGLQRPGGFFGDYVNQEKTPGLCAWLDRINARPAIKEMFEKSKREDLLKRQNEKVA

LigE = target: T2, LigE (Sphingobium sp. SYK-6, UniProt P27457); assay: chiral HPLC of MPHPV conversion; assay type: biochemical; conditions: 400 µM racemic MPHPV; 5 mM GSH; 50 mM Tris-HCl pH 7.5; 30 °C; 60 min
T2 construct: full length in pET-16b (pET08660), His-tagged, E. coli BL21(DE3), His SpinTrap purified
T2 sequence (P27457 1-281 limits assumed): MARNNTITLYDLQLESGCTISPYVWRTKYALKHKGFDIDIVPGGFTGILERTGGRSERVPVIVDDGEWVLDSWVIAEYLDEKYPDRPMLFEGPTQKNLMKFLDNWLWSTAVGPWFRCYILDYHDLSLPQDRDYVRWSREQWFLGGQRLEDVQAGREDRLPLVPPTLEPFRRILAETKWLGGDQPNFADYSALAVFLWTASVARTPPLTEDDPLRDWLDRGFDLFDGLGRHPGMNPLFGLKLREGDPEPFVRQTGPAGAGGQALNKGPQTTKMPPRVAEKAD

SMILES	chiral HPLC of MPHPV conversion (LigF)	chiral HPLC of MPHPV conversion (LigE)
COc1cc(C(=O)[C@H](CO)Oc2ccccc2OC)ccc1O [(βS)-MPHPV]	LigF and LigE completely converted (βS)-MPHPV and (βR)-MPHPV, respectively	
COc1cc(C(=O)[C@@H](CO)Oc2ccccc2OC)ccc1O [(βR)-MPHPV]		LigF and LigE completely converted (βS)-MPHPV and (βR)-MPHPV, respectively
